From PMC11996864, “A small-molecule inhibitor of BCL10-MALT1 interaction abrogates progression of diffuse large B cell lymphoma” (The Journal of Clinical Investigation, 2025)
Values joined by “and” are separate entries in the source; they are usually repeats but may differ in a detail not shown here. Equal entries are not always repeated.

Columns and labels:
human primary T cells = experiment: Human T cell apoptosis, annexin V; format: cell-based
Protocol: Annexin V Alexa 488
(ThermoFisher Scientific, Cat# A13201) and SYTOX Blue Dead Cell (ThermoFisher Scientific, Cat# S34857) stains were used to detect apoptosis in DLBCL cells after treatment with 1 µM compounds for 8 days in TMD8 and OCI-Ly1 and for 5 days in OCI-Ly3 cells, then analyzed with flow cytometry. The percentages of cells in early and late apoptosis were combined for […]
quantification. […]
Human T cell apoptosis. Human CD4/CD8 T cells were isolated from blood using Pan T Cell Isolation Kit (Miltenyi Biotec, Cat# 130-096-535), IRB exemption STUDY21080109. T cells were incubated with DynabeadsTM Human T-Activator CD3/CD28 (Thermo Fisher Scientific, Cat# 11131D) for 72 hours after which cells were grown in RPMI containing 10% FBS and IL-2 (Peprotech, Cat# 200-02). T cells were treated with M1i-124 (1 µM) or DMSO control with media change/drug treatment every 2-4 days. Apoptosis was evaluated on day 6 as described previously except that annexin V 647 was utilized (Invitrogen, A23204). Data is from 3 independent donors. […]

COX1/2 = experiment: SAFETYscan78 off-target screen; conditions: off-target panel; read-out: EC50 or IC50, COX1/2
Excerpt: (§1) We also tested for possible adverse actions of M1i-124 on cytochrome P450 (CYP) enzymes that might limit its use in vivo. The CYP family of enzymes are responsible for phase I metabolism of many drugs and endogenous substances, and their inhibition can lead to unanticipated toxicities. […] To further test for potential off-target effects of M1i-124, we conducted an in vitro safety pharmacology profiling screen that measures the ability of a candidate compound to inhibit 78 key GPCRs, ion channels, nuclear hormone receptors, neurotransmitter transporters, kinases, and non-kinase enzymes. […]
(§2) cological profile for M1i-124. EC50 or I C50 f or act i vi t y agai nst sel ect GPCRs, i on channel s, nucl ear hor mone r eceptor s, ki nases, and neur otr ansmi tter tr anspor ter s i n an off-target activity screen of M1i-124 (Eurofins SAFETYscan78). When unmeasurable, the EC50 or IC50 for an indicated target is listed as >10 […]
(§3) (1 picture or pasted object on this page, not shown here)

INSR = target: T1, INSR (Homo sapiens, UniProt P06213); experiment: SAFETYscan78 off-target screen; conditions: off-target panel; read-out: EC50 or IC50, INSR
T1 construct: Eurofins SAFETYscan78
T1 sequence (P06213 28-1382): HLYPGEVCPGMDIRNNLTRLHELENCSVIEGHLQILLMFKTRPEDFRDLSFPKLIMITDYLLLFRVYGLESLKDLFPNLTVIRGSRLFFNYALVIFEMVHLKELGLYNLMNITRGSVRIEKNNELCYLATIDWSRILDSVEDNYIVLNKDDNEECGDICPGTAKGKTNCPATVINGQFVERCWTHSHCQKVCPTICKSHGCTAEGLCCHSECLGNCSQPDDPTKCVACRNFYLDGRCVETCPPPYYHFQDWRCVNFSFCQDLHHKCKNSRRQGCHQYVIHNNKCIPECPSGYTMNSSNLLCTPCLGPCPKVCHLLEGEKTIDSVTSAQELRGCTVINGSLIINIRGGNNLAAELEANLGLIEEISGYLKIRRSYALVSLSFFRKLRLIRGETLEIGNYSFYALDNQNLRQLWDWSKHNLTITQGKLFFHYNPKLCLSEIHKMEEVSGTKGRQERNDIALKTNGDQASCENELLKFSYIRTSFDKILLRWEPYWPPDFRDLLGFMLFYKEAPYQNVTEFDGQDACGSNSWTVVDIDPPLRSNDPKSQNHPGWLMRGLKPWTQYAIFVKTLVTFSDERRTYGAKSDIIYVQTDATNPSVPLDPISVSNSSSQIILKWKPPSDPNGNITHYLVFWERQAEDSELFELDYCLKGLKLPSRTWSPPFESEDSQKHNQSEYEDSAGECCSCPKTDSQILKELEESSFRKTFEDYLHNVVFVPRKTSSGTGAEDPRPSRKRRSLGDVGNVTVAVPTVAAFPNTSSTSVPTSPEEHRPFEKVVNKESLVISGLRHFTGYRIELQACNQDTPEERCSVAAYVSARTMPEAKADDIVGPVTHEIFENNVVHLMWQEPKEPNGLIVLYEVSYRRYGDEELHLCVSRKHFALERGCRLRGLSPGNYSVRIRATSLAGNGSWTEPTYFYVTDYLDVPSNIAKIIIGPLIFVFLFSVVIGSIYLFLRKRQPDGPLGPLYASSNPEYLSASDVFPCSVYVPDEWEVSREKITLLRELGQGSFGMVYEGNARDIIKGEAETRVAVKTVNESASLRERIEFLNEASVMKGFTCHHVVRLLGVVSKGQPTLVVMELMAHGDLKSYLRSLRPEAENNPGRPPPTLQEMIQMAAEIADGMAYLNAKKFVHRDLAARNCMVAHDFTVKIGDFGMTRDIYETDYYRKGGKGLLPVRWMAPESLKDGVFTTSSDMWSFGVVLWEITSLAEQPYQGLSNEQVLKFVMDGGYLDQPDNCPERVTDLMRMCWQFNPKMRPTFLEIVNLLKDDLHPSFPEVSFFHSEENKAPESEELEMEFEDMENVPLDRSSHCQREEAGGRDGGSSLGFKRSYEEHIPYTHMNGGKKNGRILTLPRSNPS
Excerpt: as §1, §2, §3

LCK = target: T2, LCK (Homo sapiens, UniProt P06239); experiment: SAFETYscan78 off-target screen; conditions: off-target panel; read-out: EC50 or IC50, LCK
T2 construct: Eurofins SAFETYscan78
T2 sequence (P06239 whole entry): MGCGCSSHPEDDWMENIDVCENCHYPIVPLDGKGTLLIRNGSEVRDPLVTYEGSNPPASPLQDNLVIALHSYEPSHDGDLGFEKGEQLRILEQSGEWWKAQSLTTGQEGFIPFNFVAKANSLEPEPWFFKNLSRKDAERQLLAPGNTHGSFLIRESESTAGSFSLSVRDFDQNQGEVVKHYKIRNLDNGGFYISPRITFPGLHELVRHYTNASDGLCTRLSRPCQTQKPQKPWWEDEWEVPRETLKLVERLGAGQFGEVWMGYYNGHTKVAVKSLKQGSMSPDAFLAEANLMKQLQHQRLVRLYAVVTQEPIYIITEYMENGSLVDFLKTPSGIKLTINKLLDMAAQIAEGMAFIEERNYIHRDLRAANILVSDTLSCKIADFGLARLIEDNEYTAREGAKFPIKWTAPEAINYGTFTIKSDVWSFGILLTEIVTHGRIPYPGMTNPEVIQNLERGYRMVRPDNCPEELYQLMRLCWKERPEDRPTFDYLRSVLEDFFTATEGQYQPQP
Excerpt: as §1, §2, §3

PDE4 = target: T3, PDE4 (Homo sapiens, UniProt Q08499); experiment: SAFETYscan78 off-target screen; conditions: off-target panel; read-out: EC50 or IC50, PDE4
T3 construct: Eurofins SAFETYscan78
T3 sequence (Q08499 303-809 limits assumed): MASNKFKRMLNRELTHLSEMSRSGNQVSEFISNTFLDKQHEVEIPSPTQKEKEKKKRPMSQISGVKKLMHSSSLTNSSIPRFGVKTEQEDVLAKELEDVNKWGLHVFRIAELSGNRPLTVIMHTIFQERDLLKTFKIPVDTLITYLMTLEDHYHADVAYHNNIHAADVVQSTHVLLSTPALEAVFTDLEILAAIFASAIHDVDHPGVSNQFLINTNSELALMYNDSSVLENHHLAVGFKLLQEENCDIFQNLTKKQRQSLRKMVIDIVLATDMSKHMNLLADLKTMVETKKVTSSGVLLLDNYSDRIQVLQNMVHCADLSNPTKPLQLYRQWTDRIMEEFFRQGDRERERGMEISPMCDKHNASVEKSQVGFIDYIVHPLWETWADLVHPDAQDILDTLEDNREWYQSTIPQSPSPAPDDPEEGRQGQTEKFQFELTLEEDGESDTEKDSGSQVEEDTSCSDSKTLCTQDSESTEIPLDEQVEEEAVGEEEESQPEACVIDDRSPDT
Excerpt: as §1, §2, §3

ROCK1 = target: T4, ROCK1 (Homo sapiens, UniProt Q13464); experiment: SAFETYscan78 off-target screen; conditions: off-target panel; read-out: EC50 or IC50, ROCK1
T4 construct: Eurofins SAFETYscan78
T4 sequence (Q13464 whole entry): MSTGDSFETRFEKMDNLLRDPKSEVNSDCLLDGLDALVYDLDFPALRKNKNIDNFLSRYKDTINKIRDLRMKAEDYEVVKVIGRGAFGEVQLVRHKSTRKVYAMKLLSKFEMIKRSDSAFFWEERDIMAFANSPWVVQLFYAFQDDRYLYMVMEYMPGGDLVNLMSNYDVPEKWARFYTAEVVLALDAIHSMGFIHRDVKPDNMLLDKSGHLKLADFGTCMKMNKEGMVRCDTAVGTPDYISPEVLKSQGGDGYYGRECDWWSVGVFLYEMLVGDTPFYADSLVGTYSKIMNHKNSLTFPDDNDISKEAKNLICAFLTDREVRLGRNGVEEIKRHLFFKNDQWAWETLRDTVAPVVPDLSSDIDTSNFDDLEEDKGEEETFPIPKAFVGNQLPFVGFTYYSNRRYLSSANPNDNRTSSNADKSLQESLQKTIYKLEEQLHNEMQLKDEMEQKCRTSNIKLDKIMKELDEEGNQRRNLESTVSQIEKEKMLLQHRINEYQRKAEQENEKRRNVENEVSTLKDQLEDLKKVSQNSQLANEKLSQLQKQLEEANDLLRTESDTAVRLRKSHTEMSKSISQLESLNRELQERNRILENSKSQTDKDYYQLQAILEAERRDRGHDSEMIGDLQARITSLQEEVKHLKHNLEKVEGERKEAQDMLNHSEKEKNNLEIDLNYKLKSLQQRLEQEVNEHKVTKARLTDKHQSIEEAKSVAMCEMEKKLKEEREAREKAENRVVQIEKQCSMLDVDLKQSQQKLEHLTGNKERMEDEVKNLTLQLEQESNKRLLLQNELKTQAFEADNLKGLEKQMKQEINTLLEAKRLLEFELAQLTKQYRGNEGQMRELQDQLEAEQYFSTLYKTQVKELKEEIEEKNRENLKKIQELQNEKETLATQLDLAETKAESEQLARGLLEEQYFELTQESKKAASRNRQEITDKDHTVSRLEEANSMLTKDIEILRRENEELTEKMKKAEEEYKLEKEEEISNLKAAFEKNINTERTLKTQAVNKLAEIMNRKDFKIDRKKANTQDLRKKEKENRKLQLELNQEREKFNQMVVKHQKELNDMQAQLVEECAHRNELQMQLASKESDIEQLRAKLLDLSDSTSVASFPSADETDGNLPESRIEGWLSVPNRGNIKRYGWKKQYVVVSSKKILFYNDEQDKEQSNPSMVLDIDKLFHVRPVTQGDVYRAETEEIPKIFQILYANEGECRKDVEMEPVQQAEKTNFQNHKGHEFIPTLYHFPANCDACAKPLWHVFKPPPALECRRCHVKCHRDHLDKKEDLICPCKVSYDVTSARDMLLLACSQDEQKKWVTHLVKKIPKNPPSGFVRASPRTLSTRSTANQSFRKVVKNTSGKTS
Excerpt: as §1, §2, §3

hERG = target: T5, hERG (Homo sapiens, UniProt Q12809); experiment: SAFETYscan78 off-target screen; conditions: off-target panel; read-out: EC50 or IC50, hERG
T5 construct: Eurofins SAFETYscan78
T5 sequence (Q12809 whole entry): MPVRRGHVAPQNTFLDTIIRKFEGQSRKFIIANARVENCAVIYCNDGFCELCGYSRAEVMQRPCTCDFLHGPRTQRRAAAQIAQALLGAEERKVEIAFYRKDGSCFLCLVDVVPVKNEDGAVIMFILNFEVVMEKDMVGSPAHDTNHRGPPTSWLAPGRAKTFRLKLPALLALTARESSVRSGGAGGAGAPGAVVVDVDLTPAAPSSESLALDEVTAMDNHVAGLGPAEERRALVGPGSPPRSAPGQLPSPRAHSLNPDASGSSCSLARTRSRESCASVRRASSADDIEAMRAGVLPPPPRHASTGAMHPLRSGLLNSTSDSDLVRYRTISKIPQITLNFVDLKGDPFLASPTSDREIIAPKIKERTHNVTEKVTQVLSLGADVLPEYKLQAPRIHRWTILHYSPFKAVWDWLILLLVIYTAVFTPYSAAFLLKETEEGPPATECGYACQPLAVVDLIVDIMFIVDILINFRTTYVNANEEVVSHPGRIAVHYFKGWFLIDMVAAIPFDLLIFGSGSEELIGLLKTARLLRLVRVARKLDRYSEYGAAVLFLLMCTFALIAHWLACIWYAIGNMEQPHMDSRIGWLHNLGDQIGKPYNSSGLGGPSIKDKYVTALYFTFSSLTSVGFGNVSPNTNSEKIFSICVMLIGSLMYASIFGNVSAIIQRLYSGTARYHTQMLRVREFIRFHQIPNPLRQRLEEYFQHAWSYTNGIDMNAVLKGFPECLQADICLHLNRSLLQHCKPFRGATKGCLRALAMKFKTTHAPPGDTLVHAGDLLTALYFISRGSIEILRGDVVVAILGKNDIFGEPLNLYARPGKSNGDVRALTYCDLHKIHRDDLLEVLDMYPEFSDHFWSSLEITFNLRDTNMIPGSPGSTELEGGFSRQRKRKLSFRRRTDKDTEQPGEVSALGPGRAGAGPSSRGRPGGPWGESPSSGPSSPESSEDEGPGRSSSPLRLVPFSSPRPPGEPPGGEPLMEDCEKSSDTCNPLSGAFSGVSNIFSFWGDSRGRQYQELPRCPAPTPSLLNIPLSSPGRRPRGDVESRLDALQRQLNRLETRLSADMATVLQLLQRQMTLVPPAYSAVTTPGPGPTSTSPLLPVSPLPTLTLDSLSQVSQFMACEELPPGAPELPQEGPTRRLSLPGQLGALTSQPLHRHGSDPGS
Excerpt: as §1, §2, §3

OCI-Ly3 xenografts = experiment: OCI-Ly3 xenograft in NSG mice; format: in vivo, mouse; conditions: daily i.p., vs DMSO, result in words
Excerpt: TMD8 cells were engrafted into 8-week-old female NOD.CB17-Prkdc^scid/J (NOD-SCID) mice from The Jackson Laboratory by subcutaneous injection of 10 × 10^6 cells resuspended in 50% Cultrex Basement Membrane Extract (R&D Systems, catalog 3632-010-02) into the right flank. OCI-Ly3 cells were engrafted into 5-week-old female NOD.Cg-Prkdc^scid Il2rg^tm1Wjl/SzJ (NSG) mice from The Jackson Laboratory by subcutaneous injection of 2.5 × 10^6 cells resuspended in Cultrex as above. OCI-Ly1 cells were engrafted into 6.5-week-old female NSG mice from The Jackson Laboratory by subcutaneous injection of 20 × 10^6 cells resuspended in Cultrex as above. For all xenograft models, when tumors reached an average volume of 100 mm^3, mice were randomized to receive M1i-124 (50 mg/kg i.p. per day), or equivalent volume of DMSO vehicle (50 μL i.p. per day). […] Tumor size was measured 3 times a week using a caliper and calculated using the formula (smallest diameter^2 × largest diameter)/2. Mice were sacrificed 24 hours after the last injection. Mice were sacrificed when the largest tumors reached 2,500 mm^3. For TMD8 xenograft experiments, tumors and various organs, including lung, heart, liver, and kidney, were collected and fixed in 10% buffered formalin, embedded in FFPE blocks, sectioned, and stained with H&E. Sections were evaluated by a board-certified pathologist.

## O=S(=O)(NCc1ccc2c(c1)OCO2)c1ccc(Cc2ccc(S(=O)(=O)NCc3ccc4c(c3)OCO4)cc2)cc1 [M1i-124]
Human primary T cells; human primary T cells, 1 µM, day 6
  Annexin (% positivity): 5.305% and 5.353% and 4.227%
Human primary T cells; vs untreated control, result in words
  apoptosis of human primary T cells: no difference
COX1/2
  IC50: > 10 µM
INSR
  IC50: > 10 µM
LCK
  IC50: > 10 µM
PDE4
  IC50: > 10 µM
ROCK1
  IC50: > 10 µM
hERG
  IC50: > 10 µM
OCI-Ly3 xenografts
  OCI-Ly3 xenograft tumor growth: significant decrease in tumor growth
